# From patent publication US5593970A, “Heterocyclic anthracycline analogs” (priority 1994, dated 1997)
# Read-outs that look alike come from different tables or passages of the source.
# Assays:
# LS180 = assay: Soft agar colony formation disk diffusion assay; assay type: cell-based, human
# From the text: (§1) A more elaborate version of this fundamental assay, the soft agar colony formation disk diffusion assay was used. This assay defines the relative activity of one particular drug versus a tumoral cell line type. The effect of the test drug against tumoral cells could be measured by its inhibitory capacity against colony formation after the delivery of the compound, in different concentrations on an filter disk(4). A modified technique of this assay was used in order to investigate the antiproliferative activity of candidate compounds. Tumoral cells from solid tumors and ascitic lines were plated separately in a two layer agar matrix. Cell lines to be tested were suspended in an upper layer of 0.4% Noble agar (Difco#00142-01) in RPMI-1066 (Gibco#3201875) at a yield varying between 10^4 to 2×10^5 cells per 60 mm Petri dish. Plating efficiency was determined for each line in order to achieve an optimal number of colonies per dish. Plates were examined before drug administration to confirm a uniform dispersion of single cells. The bottom layer consisted of 0.8% Noble agar, 0.8% Tryptic Soy Broth (difco#0037001)in CMRL-1066/Fischer's. The bottom layers were used within 2 and 9 days of preparation. Plated dishes (bottom layer of agar, upper layer of cells and administered drug were incubated in humidified atmosphere at 37° C., 5% CO2 for 10-20 days depending upon the time necessary to observe adequate colonies (defined as a cell aggregate of more than 50 cells) both control and drug inhibited. Drugs were administered on a paper filter disk (Whatman No. 1) of 6.5 mm diameter placed on the upper layer at 1/3 distance from the edge of the dish. The anti-clonogenic activity of the compounds was measured as the zone of inhibition from the disk edge to the most proximal colonies. This zone of inhibition was checked on an inverted microscope (40×) and was measured with a micrometer mounted in the eyepiece. The ocular micrometer was calibrated with a stage micrometer set for a particular combination of ocular and objective lenses. […] We made a modification of the initial technique by not plating a solid tumor and a leukemia simultaneously in the same Petri dish. Anti-clonogenic tests performed on leukemia cell line have helped in the discovery of the majority of current clinically used cytostatic drugs. Our tests on solid tumor lines (animal or human) may help define active compounds with solid tumor specificity. […] HUMAN TUMORS. […] LS180 (13) and BE1(14) were obtained from the Oncology Dept. of the Montreal General Hospital. […] Cell lines were routinely passaged twice a week by trypsinization and maintained in 25, or 75-sq. cm Falcon Plastic flasks at 37° C., 5% CO2 in humidified atmosphere. Both compounds were dissolved in DMSO (1 mg/100 ul) and brought to final volume (250 ul) with Millipore deionized sterile water. Further dilutions were made with […] volume of 25 ul of freshly prepared solution was placed on the filter disk and allowed to dry.
# MCF7/ADR = assay: Soft agar colony formation disk diffusion assay; assay type: cell-based, human
# From the text: as §1
# MCF7 = assay: Soft agar colony formation disk diffusion assay; assay type: cell-based, human
# From the text: as §1
# MATB.WT = assay: Soft agar colony formation disk diffusion assay; assay type: cell-based, rat
# From the text: (§2) A more elaborate version of this fundamental assay, the soft agar colony formation disk diffusion assay was used. This assay defines the relative activity of one particular drug versus a tumoral cell line type. The effect of the test drug against tumoral cells could be measured by its inhibitory capacity against colony formation after the delivery of the compound, in different concentrations on an filter disk(4). A modified technique of this assay was used in order to investigate the antiproliferative activity of candidate compounds. Tumoral cells from solid tumors and ascitic lines were plated separately in a two layer agar matrix. Cell lines to be tested were suspended in an upper layer of 0.4% Noble agar (Difco#00142-01) in RPMI-1066 (Gibco#3201875) at a yield varying between 10^4 to 2×10^5 cells per 60 mm Petri dish. Plating efficiency was determined for each line in order to achieve an optimal number of colonies per dish. Plates were examined before drug administration to confirm a uniform dispersion of single cells. The bottom layer consisted of 0.8% Noble agar, 0.8% Tryptic Soy Broth (difco#0037001)in CMRL-1066/Fischer's. The bottom layers were used within 2 and 9 days of preparation. Plated dishes (bottom layer of agar, upper layer of cells and administered drug were incubated in humidified atmosphere at 37° C., 5% CO2 for 10-20 days depending upon the time necessary to observe adequate colonies (defined as a cell aggregate of more than 50 cells) both control and drug inhibited. Drugs were administered on a paper filter disk (Whatman No. 1) of 6.5 mm diameter placed on the upper layer at 1/3 distance from the edge of the dish. The anti-clonogenic activity of the compounds was measured as the zone of inhibition from the disk edge to the most proximal colonies. This zone of inhibition was checked on an inverted microscope (40×) and was measured with a micrometer mounted in the eyepiece. The ocular micrometer was calibrated with a stage micrometer set for a particular combination of ocular and objective lenses. […] We made a modification of the initial technique by not plating a solid tumor and a leukemia simultaneously in the same Petri dish. Anti-clonogenic tests performed on leukemia cell line have helped in the discovery of the majority of current clinically used cytostatic drugs. Our tests on solid tumor lines (animal or human) may help define active compounds with solid tumor specificity. […] Murine tumors were maintained IN VIVO in order to diminish the selection of subpopulations of cells normally present in the heterogenous IN VIVO tumor. The actual drug sensitivity assay was done IN VITRO. For these experiments cells from freshly excised tumors or from ascitic fluids were maintained in RPMI-1066. Both compounds were dissolved in DMSO (1 mg/100 ul) and brought to final volume (250 ul) with Millipore deionized sterile water. Further dilutions were made with […] volume of 25 ul of freshly prepared solution was placed on the filter disk and allowed to dry.
# MATB/ADR = assay: Soft agar colony formation disk diffusion assay; assay type: cell-based, rat
# From the text: as §2
# SKOV3 = assay: Microculture tetrazolium assay; assay type: cell-based; conditions: read-out: IC50
# SKVLB = assay: Microculture tetrazolium assay; assay type: cell-based; conditions: for VLB/OV3: IC50 ratio SKVLB/SKOV3; for IC50: SKVLB, read-out: IC50
# T47D = assay: Microculture tetrazolium assay; assay type: cell-based; conditions: read-out: IC50
# LOX = assay: Microculture tetrazolium assay; assay type: cell-based; conditions: read-out: IC50
# HT29 = assay: Microculture tetrazolium assay; assay type: cell-based; conditions: read-out: IC50
# tumor cell lines = assay: NCI sulforhodamine B assay, all cell lines; conditions: for CC50 / IC100: 48 h; for CC50: read-out: Log10 LC50, Mean / MG-MID, all cell lines (converted); for IC100: read-out: Log10 TGI, Mean / MG-MID, all cell lines
Compound,zone of inhibition (LS180; 10 μg/DISK) [Zone Units],zone of inhibition (LS180; 100 μg/DISK) [Zone Units],zone of inhibition (MCF7/ADR; 10 μg/DISK) [Zone Units],zone of inhibition (MCF7/ADR; 100 μg/DISK) [Zone Units],zone of inhibition (MCF7; 10 μg/DISK) [Zone Units],zone of inhibition (MCF7; 100 μg/DISK) [Zone Units],zone of inhibition (MATB.WT; 10 μg/DISK) [Zone Units],zone of inhibition (MATB.WT; 100 μg/DISK) [Zone Units],"cross resistance with adriamycin, MATB/ADR vs MATB.WT (MATB/ADR)",zone of inhibition (MATB/ADR; 10 μg/DISK) [Zone Units],zone of inhibition (MATB/ADR; 100 μg/DISK) [Zone Units],IC50 (SKOV3; SKOV3) [µM],VLB/OV3 (SKVLB),IC50 (SKVLB) [µM],IC50 (T47D) [µM],IC50 (LOX) [µM],IC50 (HT29; HT29) [µM],CC50 (tumor cell lines; Homo sapiens) [µM],IC100 (tumor cell lines; Homo sapiens) [µM],"IC50 (SKOV3; Homo sapiens, SK-OV-3, SKOV3) [µM]",also measured
"3-(2-acetoxy-1-propeneketal)aceto-6-acetoxy-1-hydroxy-1,2,3,4-tetrahydro-(2-oxygen)naphtacene-5,12-dione and 3-(2-acetoxy-1-propeneketal)-aceto-11-acetoxy-1-hydroxy-1,2,3,4-tetrahydro-(2-oxygen)naphtacene-5,12-dione [BCH-710]",48.5 ± 26.1,110.0 ± 50.2,0,106.0 ± 21.9,0,24.0 ± 8.4,44.0,366.0 ± 0.0,greater cytotoxicity in the resistant breast tumor cell line,288.0 ± 21.9,350.0 ± 64.3,3.98,1.30,5.19,3.57,3.51,1.79,–,–,–,–
"3-(2-hydroxy)aceto-6-hydroxy-1,2,3,4-tetrahydro-(2-oxygen)naphthacene-5,12-dione and 3-(2-hydroxy)aceto-11-hydroxy-1,2,3,4-tetrahydro-(2-oxygen)naphthacene-5,12-dione [BCH-694]",48.8 ± 17.2,153.2 ± 1.0,0,161.5 ± 13.4,61.0 ± 0.0,149.4 ± 12.9,76.2 ± 2.5,207.0 ± 33.9,–,27.4 ± 4.3,213.5 ± 43.1,8.22,2.18,17.9,11.3,15,13.4,–,–,–,–
"COC(=O)C1CC2=C(C(=O)c3c(cc4ccccc4c3O)C2=O)C(O[C@H]2C[C@H](NC(=O)C(F)(F)F)[C@H](O)[C@H](C)O2)O1 (mixture of isomers) [BCH-242, (1'S,1R,3S) and (1'S, 1S,3R)-Methyl[11-hydroxy-1-2',3',6'-trideoxy-3-trifluroacetamido-L-lyxohexopyranose)-5,12-dioxo-3,4,5,12-tetrahydroanthraceno[2,3-c]pyran-3-yl]formate]",–,–,–,–,–,–,–,–,–,–,–,–,–,–,–,–,–,14.5,5.25,–,"antiproliferative and cytotoxic activity in words (tumor cell lines): most of the cell lines of solid tumors ultimately show cytotoxicity to the drug; Log10 TGI, Mean / MG-MID (tumor cell lines; all cell lines): -5.52 log molar; Log10 LC50, Mean / MG-MID (tumor cell lines; all cell lines, 2880 min): -5.09 log molar"
"CCOC(=O)[C@@H]1CC2=C(C(=O)c3cc4ccccc4c(O)c3C2=O)[C@@H](O[C@H]2C[C@H](NC(=O)C(F)(F)F)[C@H](O)[C@H](C)O2)O1 [BCH-681, (1'S,1R,3S)Ethyl[6-hydroxy-5,12-dioxo-1-(3'-trifuloroacetamido-1-daunosaminyl)-3,4,5,12-tetrahydroanthraceno(2,3-C)pyran-3-yl]formate]",–,–,82.7 ± 30.1,326.3 ± 56.0,–,–,51.8 ± 4.3,176.9 ± 8.6,no cross resistance with adriamycin,54.9 ± 8.6,244.0 ± 43.1,–,1.16,6.99,–,4.89,–,16.2,5.5,6.02,"IC50 (T47D; Homo sapiens): 8.15 µM; IC50 (HT29; Homo sapiens, HT-29, HT29): 1.72 µM; GI50 (tumor cell lines; Homo sapiens, read-out: Log10 GI50, Mean / MG-MID, all cell lines (converted)): 2.14 µM"
"CCOC(=O)[C@H]1CC2=C(C(=O)c3cc4ccccc4c(O)c3C2=O)[C@H](O[C@H]2C[C@H](NC(=O)C(F)(F)F)[C@H](O)[C@H](C)O2)O1 [BCH-684, (1'S,1S,3R)Ethyl[6-hydroxy-5,12-dioxo-1-(3'-trifluoroacetamido-1-daunosaminyl)-3,4,5,12-tetrahydroanthraceno(2,3-C)pyran-3-yl]formate]",–,–,161.6 ± 30.1,437.1 ± 30.1,115.9 ± 8.6,225.7 ± 25.8,131.3 ± 12.9,366.0 ± 172.5,no cross resistance with adriamycin,122.0 ± 17.0,320.2 ± 107.8,–,1.52,6.38,–,–,–,–,–,4.19,"cross resistance with adriamycin, MCF7/ADR vs MCF7 (MCF7/ADR): more active in the adriamycin resistant cell line"
"C=CC1CC2=C(C(=O)c3cc4ccccc4c(O)c3C2=O)C(OC)O1 (stereo not shown) [BCH-712, 6-hydroxy-1-methoxy-1,2,3,4-tetrahydro-3-vinyl-(2-oxygen) naphthacene-5,12-dione]",9.0 ± 4.2,158.0 ± 34.6,24.0 ± 8.4,79.0 ± 8.4,0,54.5 ± 9.1,21.0 ± 4.3,76.0 ± 21.2,no cross resistance with adriamycin,0,64.0 ± 4.2,–,–,–,–,–,–,–,–,–,"cross resistance with adriamycin, MCF7/ADR vs MCF7 (MCF7/ADR): more active in the adriamycin resistant cell line"
